The source of these data is patent publication US12410220B2, “Modulation of mammalian cell lineage by synthetic immodulins” (priority 2021, dated 2025).

The subject of data set [1] is Pancreatic protease Type I. Kind of data set: Experiment 5A peptide stability to protease degradation. It is filed as in vitro ADME. Particulars: 20 minutes at 37 degrees C, read-out: percentage of surviving peptide after protease treatment. The method, then: Duplicate wells per dilution point in a 96-well NTA-coated plate (G-Biosciences, St. Louis, MO) charged with ferric chloride were adsorbed with 2 ug imm3N1V (V-nephrilin) or immX3N1 (sV-nephrilin) peptide per well for 30 min at room temperature, washed, then incubated with 100 ul/well of 8 or 2 μg/ml protease (Sigma Catalog #P4630, Pancreatic protease Type I) for 20 minutes at 37 degrees C. Plates were washed with PBS buffer and the remaining peptide bound was measured using an in-house calibrated anti-immodulin ELISA (rabbit polyclonal #2501). The percentages of surviving peptide after 8 or 2 μg/ml protease treatment were, respectively: V-nephrilin (imm3N1V): 57.6±2.3% and 79.0±0.7%; sV-nephrilin (immX3N1): 75.1±2.8% and 90.4±3.4% (p<0.001 at both concentrations). Thus, the immX tripeptide extension at the C-terminus using D-amino acids improved peptide stability to protease degradation.

Data set [2] concerns rat scald-endotoxemia model. The experiment in a line: Experiment 5B rat scald-endotoxemia model. It is filed as in vivo, Sprague Dawley rats. As to conditions: for Change in body weight (Pct vs Day 1): Day 5; for Respiratory distress (Gp. “S” = 100): Day 8, 4 hours after LPS; for Wet/dry lung weight (corrected for body weight): Day 8, after LPS 2.5 mg/kg ip. How it is done: Experiment 5B. This study explores the effect of immX extensions on sV-nephrilin (SEQ ID NO:31) vs V-nephrilin, as well as in a longer peptide also containing the immX extension (Traumatin-3N1A: SEQ ID NO:35) on in vivo efficacy in a rat scald-endotoxemia model. Animals were treated with peptides using a widely used protocol previously described (see, for example, U.S. Pat. No. 10,369,191). Adult Sprague Dawley rats of both sexes (250-300 gm, Charles River Laboratories, Wilmington, MA, USA) were injected with peptide plus equimolar ferric iron once daily by subcutaneous bolus injection, days 1-7; Treatment group sizes were (n=6): group S=sham-treated; group B=burn+vehicle; group V=burn+1 mg/kg V-nephrilin (V); group sV=burn+1 mg/kg sV-nephrilin (immX3N1sV); group T=burn+1 mg/kg Traumatin-3N1A. The first dose was administered after completion of the scald procedure. Injection volume was 400 uL. Control animals received the same volume of vehicle. On Day 8, animals received a single intraperitoneal injection of 2.5 mg/kg lipopolysaccharide (LPS; Sigma Cat #L-2880) and animals were then monitored by oximeter (MouseOx, Starr Life Sciences) for 4 hours, when respiratory distress (breath distension*breaths/min) was assessed relative to baseline. This was followed by sacrifice and tissue collection as in the published protocol, except that bronchoalveolar lavage (BAL) was collected and cells were recovered from BAL by centrifugation. These cells were stained with fluorescently-labeled antibodies for flow cytometry in order to ascertain granulocyte counts, as shown below. Results of the peptide comparison are presented in the table below. *p<0.05 vs “B” control. #p<0.05 vs “V” group.

Data set [3] is described as follows: Ferric iron-binding assay of biotinylated immodulin peptides. As to conditions: N-terminally biotinylated peptide, 400 ng per well, 60 min room temperature; immX3AVD = 100. From the text: N-terminally biotinylated versions of the peptides listed below were used in ferric iron-binding assays involving either an Alexa488-labeled streptavidin protocol (Binding Assay 1) or FITC-NTA assay (Binding Assay 2). Fluorescence was standardized to binding with immX3AVD control peptide (100) and the average of multiple experiments using both protocols is shown. P values are shown relative to the control immX3AVD peptide (**<0.05). D-amino acid residues are underlined in the sequences and the extension tripeptide of immX peptides is shown in bold font. Binding Assay 1 was done as follows: NTA coated 96-well plates (G-Biosciences, St. Louis, MO) were charged with ferric chloride and contacted with equimolar biotinylated peptide: streptavidin-A488 complex (400 ng peptide per well) for 60 min at room temperature, washed with phosphate-buffered saline (PBS) and read at 525 nm in a fluorescence counter. Binding Assay 2 was done as follows: Streptavidin coated 96-well plates (G-Biosciences, St. Louis, MO) were contacted with 400 ng peptide per well in PBS buffer for 60 minutes at room temperature, washed in PBS, then contacted with FITC-NTA (TRC, Toronto, Canada) complexed with equimolar ferric chloride (10× molar equivalent per well) for 60 min at room temperature, washed with PBS and read at 525 nm in a fluorescence counter.

The test system of data set [4] is THP1-Dual monocytes. Kind of data set: THP1-Dual monocyte differentiation assay, PMA protocol. Particulars: peptide 330 nM, 24 hours. The class given is cell-based, human. How it is done:
(§1) Mammalian cell differentiation assays using THP1-Dual monocytes reporter cell line (Invivogen Inc, San Diego, CA) seeded at 2×10e5 cells per well in 96-well plates and cultured at 37 degrees C. in RPMI-1640 growth medium plus 10% fetal bovine serum and 1% penicillin/streptomycin, then treated for 24 hours with either 100 ng/ml Phorbol 12-myristate 13-acetate (PMA protocol; Cayman Chemical Company, Ann Arbor, MI) or a mixture of IL-4 (100 ng/ml), GM-CSF (100 ng/ml), TNF-alpha (20 ng/ml) and ionomycin (200 ng/ml) (Cytokine protocol; Peprotech, Rocky Hill, NJ). Peptide (330 nM) was then added, and incubation continued for an additional 24 hours. Culture supernatants were then assayed for CCL22. Plates with adherent cells were washed with PBS and assayed for immunoreactivity of surface markers such as CD169, Clec9a, Clec12a or MHCII using fuorescent tag- or biotin-labeled anti-human antibodies purchased from Miltenyi Biotec (Auburn, CA) and a relevant secondary detection reagent, or by fluorescence counts.

Data set [5] relates to THP1-Dual monocytes. The experiment in a line: THP1-Dual differentiation assay, immX3 peptide plus helper or inhibitor molecule. The class given is cell-based, human. Particulars: immX3 peptide (330 nM) in all samples plus helper at the concentration given; immX3 with buffer = 100.0. The method, then: as §1
The THP1-Dual cell differentiation assay was carried out as described above in Example 2, using immX3 peptide (330 nM) in all samples plus the indicated helper or inhibitor molecule. AU=arbitrary ELISA units. **p<0.01.

Data set [6] relates to A375 cells. The experiment in a line: A375 cell viability (CellTiterGlo). It is filed as cell-based. As to conditions: 72 hours. The method, then: Immune modulation functions of immodulin peptides have great potential untility in the field of cancer. A375 cell line was obtained from American Type Culture Collection (ATCC). They were grown in a T-75 flask in DMEM Medium containing 10% fetal bovine serum and penicillin-streptomycin at 37° C. in a humidified, 5% CO2 incubator. Cells (100 µl, 2,000 cells/well) were plated in a 96-well plate and incubated overnight at 37° C. in a humidified, 5% CO2 incubator. Next day, 10 µl/well of compounds were added (quadruplicate wells). After 72 hour incubation with the compound, cell viability was measured in a luminometer after the addition of 100 IL/well CellTiterGlo reagent (Promega Inc, Madison, WI) as recommended by the manufacturer. Anti-cancer activity of immodulin peptides on A375 cells: A 96-well plate was seeded with 2,000 A375 cells per well in DMEM medium containing 10% FBS and PenStrep. After 24 hrs at 37 deg C., compounds and peptides were added (each treatment done in quadruplicate). After a further 72 hours incubation, 100 μL/well of CTG assay reagent purchased from Promega Inc. (Madison, WI) was added. Plate was read after 10 minutes, as recommended by the manufacturer. Peptides were added at 2 uM. The results of this experiment are shown below, expressed as percent survival of A375 cells.
(Cellular ATP, detected with luciferase, serves as a proxy for viable cell number.)

Setting [7] is: Day 1, burn + 1 mg/kg peptide plus equimolar ferric iron, subcutaneous once daily.
Setting [8] is: burn + 1 mg/kg peptide plus equimolar ferric iron, subcutaneous once daily.
Setting [9] is: burn + 1 mg/kg peptide days 1-7.
[10] abbreviates: Day 8, after LPS, burn + 1 mg/kg peptide days 1-7.

Read-outs that look alike come from different tables or passages of the source. Marks after values point to notes of the source that are not given here. Ends that are not written are not given here. Peptide text beside a SMILES is read from it. * marks the point of attachment. RG108 = O=C1c2ccccc2C(=O)N1[C@@H](Cc1c[nH]c2ccccc12)C(=O)*

Regarding “RGVTEDYLRLETLVQKVVSKGFYKKKQCRPSKGRKRGFCWAVD (cysteines drawn unpaired) [sV-nephrilin]”, the remaining at 20 min in data set [1] (2 μg/ml protease) was 90.4 ± 3.4%. Moreover, the remaining at 20 min in data set [1] (8 μg/ml protease) turned out to be 75.1 ± 2.8%. In addition, in data set [2] (setting [7]), the “Plasma IL-6 (pg/ml)” value is 17.5 ± 9.3* pg/ml and the “Plasma albumin mg/ml (24 hr IR)” value is 7.4 ± 1.6* mg/ml. Further, the “Change in body weight (Pct vs Day 1)” value in data set [2] (setting [8]) is given as −5.1 ± 3.6* Pct. Also, in data set [2] (setting [9]), the “Respiratory distress (Gp. “S” = 100)” value is reported as 203 ± 30*# and the “Wet/dry lung weight (corrected for body weight)” value is 7.07 ± 0.48*. Also, in data set [2] (setting [10]), the “BAL His48+ granulocytes (FITC units)” value is 26.8 ± 4.0* FITC units, the “BAL fluid IL1-beta (pg/ml)” value is 67.1 ± 16*# pg/ml, the “Plasma OHDG (ng/ml)” value is on record as 1.31 ± 0.6* ng/ml and the “Plasma creatinine (mg/dL)” value is listed as 0.73 ± 0.2* mg/dL.
In the case of KKGFYKKKQCRPSKGRKRGFCWRVD [immX3RVD], the “Ferric iron binding, fluorescence standardized to immX3AVD control peptide (100), Avg ± SD” value in data set [3] worked out at 97.5 ± 5.1. In data set [4] (culture supernatant), this compound had a CCL22 of 272.5 ± 35.7 pg/mL. In data set [4] (relative to immX3AVD = 100), the “CD169+ (AU)” value turned out to be 88.1 ± 4.2 AU.
Take `Oc1c(C(Nc2nc3ccccc3s2)c2ccc(OC(F)F)cc2)ccc2cccnc12` (centres unmarked) [RIG-I agonist [b], reference compound]: the “CD169 (AU)” value in data set [5] is 131.6 ± 4.6** AU. In addition, in data set [6] (RIG-I agonist 4 uM alone (No peptide)), the “percent survival of A375 cells, RIG-I ag without peptide” value turned out to be 100.7%.
On to `CC(C)C[C@H](NC(=O)[C@H](Cc1ccc(O)cc1)NC(=O)[C@H](CC(=O)O)NC(=O)[C@H](CCC(=O)O)NC(=O)[C@@H](NC(=O)[C@@H](NC(=O)CNC(=O)[C@@H](N)CCCNC(=N)N)C(C)C)[C@@H](C)O)C(=O)N[C@@H](CCCNC(=N)N)C(=O)N[C@@H](CC(C)C)C(=O)N[C@@H](CCC(=O)O)C(=O)N[C@H](C(=O)N[C@@H](CC(C)C)C(=O)N[C@H](C(=O)N[C@@H](CCC(N)=O)C(=O)N[C@@H](CCCCN)C(=O)N[C@H](C(=O)N[C@H](C(=O)N[C@@H](CO)C(=O)N[C@@H](CCCCN)C(=O)NCC(=O)N[C@@H](Cc1ccccc1)C(=O)N[C@@H](Cc1ccc(O)cc1)C(=O)N[C@@H](CCCCN)C(=O)N[C@@H](CCCCN)C(=O)N[C@@H](CCCCN)C(=O)N[C@@H](CCC(N)=O)C(=O)N[C@@H](CS)C(=O)N[C@@H](CCCNC(=N)N)C(=O)N1CCC[C@H]1C(=O)N[C@@H](CO)C(=O)N[C@@H](CCCCN)C(=O)NCC(=O)N[C@@H](CCCNC(=N)N)C(=O)N[C@@H](CCCCN)C(=O)N[C@@H](CCCNC(=N)N)C(=O)NCC(=O)N[C@@H](Cc1ccccc1)C(=O)N[C@@H](CS)C(=O)N[C@@H](Cc1c[nH]c2ccccc12)C(=O)O)C(C)C)C(C)C)C(C)C)[C@@H](C)O` [V-nephrilin] (H-RGVTEDYLRLETLVQKVVSKGFYKKKQCRPSKGRKRGFCW-OH; N-terminus and C-terminus assumed), for which the remaining at 20 min in data set [1] (2 μg/ml protease) came to 79 ± 0.7%. Moreover, the remaining at 20 min in data set [1] (8 μg/ml protease) worked out at 57.6 ± 2.3%. In data set [2] (setting [7]), the “Plasma IL-6” value came out at 31.4 ± 19 pg/mL and the “Plasma albumin mg/ml (24 hr IR)” value stood at 7.9 ± 2.1 mg/mL. Further, the “Change in body weight (Pct vs Day 1)” value in data set [2] (setting [8]) is listed as −9.8 ± 2.9 Pct. For the same compound, in data set [2] (setting [9]), the “Respiratory distress (Gp. “S” = 100)” value is 349 ± 95 and the “Wet/dry lung weight (corrected for body weight)” value is on record as 7.97 ± 0.76. Also, in data set [2] (setting [10]), the “BAL His48+ granulocytes (FITC units)” value is reported as 28.9 ± 3.1* FITC units, the “BAL fluid IL1-beta” value amounted to 112.8 ± 9.4 pg/mL, the “Plasma OHDG” value worked out at 1.44 ± 1.0 ng/mL and the “Plasma creatinine” value came to 0.91 ± 0.3 mg/dL.
In the case of “(rg108)-KKGFYKKKQCRPSKGRKRGFCW (RG108-KKGFYKKKQCRPSKGRKRGFCW; cysteine pairing not given here) [imm3rg8, imm3 N-terminally conjugated with RG108]”, the “percent survival of A375 cells, +RIG-I ag” value in data set [6] (peptide 2 uM plus RIG-I agonist 4 uM) was found to be 105.8%. In addition, in data set [6] (peptide 2 uM, no RIG-I agonist), the “percent survival of A375 cells, Buffer” value is given as 89.9** percent.
